Source: PubChem BioAssay AID1259407 (Chemical Carcinogenesis Research Information System (CCRIS), 2018)
Activity calls are given as the source filed them. How the calls were made is not given here.

Tested on: CCRIS mutagenicity, Ames/micronucleus/aberration tests
Experiment: CCRIS mutagenicity studies
[1] = Test System: AMES SALMONELLA TYPHIMURIUM, Strain/Indicator: TA98, Metabolic Activation: NONE, Method: PREINCUBATION
[2] = Test System: AMES SALMONELLA TYPHIMURIUM, Strain/Indicator: TA100, Metabolic Activation: NONE, Method: PREINCUBATION
[3] = Test System: AMES SALMONELLA TYPHIMURIUM, Strain/Indicator: TA100, Metabolic Activation: NONE, Method: STANDARD PLATE

Compound: Nc1cc2nc3ccccc3nc2cc1N
- mutagenic call (Test System: AMES SALMONELLA TYPHIMURIUM, Strain/Indicator: TA98(1,8-DNP6), Metabolic Activation: NONE, Method: PREINCUBATION): inactive; negative
- mutagenic call (Test System: AMES SALMONELLA TYPHIMURIUM, Strain/Indicator: TA98(1,8-DNP6), Metabolic Activation: S-9, Method: PREINCUBATION): active; positive
- mutagenic call [1]: inactive; negative
- mutagenic call (Test System: AMES SALMONELLA TYPHIMURIUM, Strain/Indicator: TA98, Metabolic Activation: NONE, Method: STANDARD PLATE): active; positive
- mutagenic call (Test System: AMES SALMONELLA TYPHIMURIUM, Strain/Indicator: TA98, Metabolic Activation: RAT, LIVER, S-9, AROCLOR 1254, Method: STANDARD PLATE): active; positive
- mutagenic call (Test System: AMES SALMONELLA TYPHIMURIUM, Strain/Indicator: TA98, Metabolic Activation: S-9, Method: PREINCUBATION): active; positive
- mutagenic call (Test System: AMES SALMONELLA TYPHIMURIUM, Strain/Indicator: TA98, Metabolic Activation: S-9, Method: SUSPENSION/PLATE): active; positive
- mutagenic call (Test System: AMES SALMONELLA TYPHIMURIUM, Strain/Indicator: TA100(OAT-), Metabolic Activation: NONE, Method: PREINCUBATION): inactive; negative
- mutagenic call (Test System: AMES SALMONELLA TYPHIMURIUM, Strain/Indicator: TA100(OAT-), Metabolic Activation: S-9, Method: PREINCUBATION): inactive; negative
- mutagenic call [2]: inactive; negative
- mutagenic call [3]: inactive; negative
- mutagenic call (Test System: AMES SALMONELLA TYPHIMURIUM, Strain/Indicator: TA100, Metabolic Activation: RAT, LIVER, S-9, AROCLOR 1254, Method: STANDARD PLATE): active; positive
- mutagenic call (Test System: AMES SALMONELLA TYPHIMURIUM, Strain/Indicator: TA100, Metabolic Activation: S-9, Method: PREINCUBATION): active; positive
- mutagenic call (Test System: AMES SALMONELLA TYPHIMURIUM, Strain/Indicator: TA1029, Metabolic Activation: S-9, Method: PREINCUBATION): active; positive
- mutagenic call (Test System: AMES SALMONELLA TYPHIMURIUM, Strain/Indicator: TA1537, Metabolic Activation: NONE, Method: STANDARD PLATE): active; positive
- mutagenic call (Test System: AMES SALMONELLA TYPHIMURIUM, Strain/Indicator: TA1537, Metabolic Activation: RAT, LIVER, S-9, AROCLOR 1254, Method: STANDARD PLATE): active; positive
- mutagenic call (Test System: AMES SALMONELLA TYPHIMURIUM, Strain/Indicator: YG1024, Metabolic Activation: PLANT CELL-FREE EXTRACT, Method: PREINCUBATION): active; positive
- mutagenic call (Test System: AMES SALMONELLA TYPHIMURIUM, Strain/Indicator: YG1024, Metabolic Activation: S-9, Method: PREINCUBATION): active; positive
- mutagenic call (Test System: AMES SALMONELLA TYPHIMURIUM, Strain/Indicator: YG1029, Metabolic Activation: PLANT CELL-FREE EXTRACT, Method: PREINCUBATION): active; positive
- mutagenic call (Test System: AMES SALMONELLA TYPHIMURIUM, Strain/Indicator: YG1029, Metabolic Activation: S-9, Method: PREINCUBATION): active; positive

Compound: O=C(O)c1cc(Cl)cc(Cl)c1
- mutagenic call [1]: inactive; negative
- mutagenic call (Test System: AMES SALMONELLA TYPHIMURIUM, Strain/Indicator: TA98, Metabolic Activation: RAT LIVER S-9, PCB, Method: PREINCUBATION): inactive; negative
- mutagenic call [2]: inactive; negative
- mutagenic call (Test System: AMES SALMONELLA TYPHIMURIUM, Strain/Indicator: TA100, Metabolic Activation: RAT LIVER S-9, PCB, Method: PREINCUBATION): inactive; negative
- mutagenic call (Test System: AMES SALMONELLA TYPHIMURIUM, Strain/Indicator: TA104, Metabolic Activation: NONE, Method: PREINCUBATION): inactive; negative
- mutagenic call (Test System: AMES SALMONELLA TYPHIMURIUM, Strain/Indicator: TA104, Metabolic Activation: RAT LIVER S-9, PCB, Method: PREINCUBATION): inactive; negative
- mutagenic call (Test System: E.COLI, Strain/Indicator: WP2 UVRA, Metabolic Activation: NONE, Method: PREINCUBATION): inactive; negative
- mutagenic call (Test System: E.COLI, Strain/Indicator: WP2 UVRA, Metabolic Activation: RAT LIVER S-9, PCB, Method: PREINCUBATION): inactive; negative

Compound: O=C(NCc1ccccc1)C(Cl)c1ccccc1 (stereo not given)
- mutagenic call (Test System: AMES SALMONELLA TYPHIMURIUM, Strain/Indicator: TA100, Metabolic Activation: MOUSE, LIVER, S-9, AROCLOR 1254, Method: STANDARD PLATE): inactive; negative
- mutagenic call [3]: active; positive
